# Assays:
# PI3Kδ = target: T1, PI3Kδ (Homo sapiens, UniProt O00329); assay: biochemical kinase assay at ATP Km apparent
# T1 construct: gene PIK3CD
# PI3Kγ = PI3Kγ (Homo sapiens, UniProt P48736); assay: X-ray cocrystal structure ([…] Å); purified kinase assay IC50; type: biochemical; parameters: gene PIK3CG; S144-A1102
# PPARγ = target: T2, PPARγ (Homo sapiens, UniProt P37231); assay: X-ray cocrystal structure ([…] Å); TR-FRET competitive binding
# T2 construct: gene PPARG; L232-Y505 of UniProt entry P37231-2
# cathepsin G (h) = target: T3, cathepsin G (h) (Homo sapiens, UniProt P08311); parameters: Eurofins SafetyScreen 87 enzyme part: inhibition of control enzyme activity, single concentration; conditions: mean of 2, 10 µM, inhibitor
# T3 construct: gene CTSG
# T3 sequence (P08311 whole entry): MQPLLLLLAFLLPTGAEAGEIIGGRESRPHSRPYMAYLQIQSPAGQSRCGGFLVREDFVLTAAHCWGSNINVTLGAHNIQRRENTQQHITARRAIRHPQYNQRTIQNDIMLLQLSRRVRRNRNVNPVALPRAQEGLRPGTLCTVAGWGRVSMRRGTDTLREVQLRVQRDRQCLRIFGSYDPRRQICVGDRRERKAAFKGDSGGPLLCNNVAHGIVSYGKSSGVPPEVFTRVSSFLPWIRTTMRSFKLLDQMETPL
# IRK (h) (InsR) = IRK (h) (InsR) (Homo sapiens, UniProt P06213); parameters: Eurofins SafetyScreen 87 enzyme part: inhibition of control enzyme activity, single concentration; conditions: mean of 2, 10 µM, inhibitor
# PKCalpha (h) = target: T4, PKCalpha (h) (Homo sapiens, UniProt P17252); parameters: Eurofins SafetyScreen 87 enzyme part: inhibition of control enzyme activity, single concentration; conditions: mean of 2, 10 µM, inhibitor
# T4 construct: gene PRKCA
# Lck kinase (h) = Lck kinase (h) (Homo sapiens, UniProt P06239); parameters: Eurofins SafetyScreen 87 enzyme part: inhibition of control enzyme activity, single concentration; conditions: mean of 2, 10 µM, inhibitor
# [1] = target: T5, MAO-B (h) recombinant enzyme (Homo sapiens, UniProt P27338); parameters: Eurofins SafetyScreen 87 enzyme part: inhibition of control enzyme activity, single concentration; conditions: mean of 2, 10 µM, inhibitor
# T5 construct: gene MAOB; recombinant enzyme
# ACE (h) = ACE (h) (Homo sapiens, UniProt P12821); parameters: Eurofins SafetyScreen 87 enzyme part: inhibition of control enzyme activity, single concentration; conditions: mean of 2, 10 µM, inhibitor
# PDE3A (h) = PDE3A (h) (Homo sapiens, UniProt Q14432); parameters: Eurofins SafetyScreen 87 enzyme part: inhibition of control enzyme activity, single concentration; conditions: mean of 2, 10 µM, inhibitor
# COX2(h) = target: T6, COX2(h) (Homo sapiens, UniProt P35354); parameters: Eurofins SafetyScreen 87 enzyme part: inhibition of control enzyme activity, single concentration; conditions: mean of 2, 10 µM, inhibitor
# T6 construct: gene PTGS2
# PDE4D2 (h) = target: T7, PDE4D2 (h) (Homo sapiens, UniProt Q08499); parameters: Eurofins SafetyScreen 87 enzyme part: inhibition of control enzyme activity, single concentration; conditions: mean of 2, 10 µM, inhibitor
# T7 construct: gene PDE4D; isoform PDE4D2
# COX1(h) = target: T8, COX1(h) (Homo sapiens, UniProt P23219); parameters: Eurofins SafetyScreen 87 enzyme part: inhibition of control enzyme activity, single concentration; conditions: mean of 2, 10 µM, inhibitor
# T8 construct: gene PTGS1
# [2] = target: T9, Y1 (h) (agonist radioligand) (Homo sapiens, UniProt P25929); assay: biochemical; conditions: read-out: Binding / ================================================= / % Inhibition of Control Specific Binding
# T9 construct: gene NPY1R
# [3] = target: T10, CB2 (h) (agonist radioligand) (Homo sapiens, UniProt P34972); assay: biochemical; conditions: read-out: Binding / ================================================= / % Inhibition of Control Specific Binding
# T10 construct: gene CNR2
# [4] = target: T11, beta 1 (h) (agonist radioligand) (Homo sapiens, UniProt P08588); assay: biochemical; conditions: read-out: Binding / ================================================= / % Inhibition of Control Specific Binding
# T11 construct: gene ADRB1
# T11 sequence (P08588 whole entry): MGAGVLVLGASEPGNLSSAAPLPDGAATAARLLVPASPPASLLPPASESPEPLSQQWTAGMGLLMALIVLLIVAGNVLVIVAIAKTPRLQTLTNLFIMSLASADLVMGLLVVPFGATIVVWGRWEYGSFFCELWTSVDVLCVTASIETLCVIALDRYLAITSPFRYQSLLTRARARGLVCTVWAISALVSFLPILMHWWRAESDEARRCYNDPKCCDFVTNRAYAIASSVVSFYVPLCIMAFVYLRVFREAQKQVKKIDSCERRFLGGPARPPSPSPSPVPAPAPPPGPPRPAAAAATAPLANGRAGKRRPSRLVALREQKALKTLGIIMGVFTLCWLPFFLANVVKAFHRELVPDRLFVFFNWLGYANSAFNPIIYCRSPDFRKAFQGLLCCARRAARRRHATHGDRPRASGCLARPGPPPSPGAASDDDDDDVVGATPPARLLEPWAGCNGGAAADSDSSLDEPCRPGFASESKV
# [5] = target: T12, H1 (h) (antagonist radioligand) (Homo sapiens, UniProt P35367); assay: biochemical; conditions: read-out: Binding / ================================================= / % Inhibition of Control Specific Binding
# T12 construct: gene HRH1
# T12 sequence (P35367 whole entry): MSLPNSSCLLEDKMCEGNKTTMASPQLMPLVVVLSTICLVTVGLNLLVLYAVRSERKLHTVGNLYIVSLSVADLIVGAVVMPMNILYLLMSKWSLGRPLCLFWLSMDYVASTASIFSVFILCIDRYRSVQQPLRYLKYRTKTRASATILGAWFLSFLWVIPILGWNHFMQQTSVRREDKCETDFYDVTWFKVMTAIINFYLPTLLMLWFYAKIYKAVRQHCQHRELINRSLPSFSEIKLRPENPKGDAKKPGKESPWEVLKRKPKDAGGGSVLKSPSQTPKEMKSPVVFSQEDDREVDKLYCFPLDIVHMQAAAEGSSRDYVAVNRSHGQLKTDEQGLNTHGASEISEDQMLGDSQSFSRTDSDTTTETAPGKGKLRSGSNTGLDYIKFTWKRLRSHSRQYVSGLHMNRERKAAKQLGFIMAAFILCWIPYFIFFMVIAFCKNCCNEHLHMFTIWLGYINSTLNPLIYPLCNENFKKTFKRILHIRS
# [6] = target: T13, alpha 1B (h) (antagonist radioligand) (Homo sapiens, UniProt P35368); assay: biochemical; conditions: read-out: Binding / ================================================= / % Inhibition of Control Specific Binding
# T13 construct: gene ADRA1B
# [7] = target: T14, GABAA1 (h) (alpha 1,beta 2,gamma 2) (agonist radioligand) (Homo sapiens, UniProt P14867+P47870); assay: biochemical; conditions: read-out: Binding / ================================================= / % Inhibition of Control Specific Binding
# T14 construct: gene GABRA1
# [8] = target: T15, NK1 (h) (agonist radioligand) (Homo sapiens, UniProt P25103); assay: biochemical; conditions: read-out: Binding / ================================================= / % Inhibition of Control Specific Binding
# T15 construct: gene TACR1
# [9] = target: T16, alpha 1A (h) (antagonist radioligand) (Homo sapiens, UniProt P35348); assay: biochemical; conditions: read-out: Binding / ================================================= / % Inhibition of Control Specific Binding
# T16 construct: gene ADRA1A
# [10] = target: T17, N muscle-type (h) (antagonist radioligand) (Homo sapiens, UniProt P02708+P07510+Q07001); assay: biochemical; conditions: read-out: Binding / ================================================= / % Inhibition of Control Specific Binding
# T17 construct: gene CHRNA1
# T17 sequence (P02708 whole entry): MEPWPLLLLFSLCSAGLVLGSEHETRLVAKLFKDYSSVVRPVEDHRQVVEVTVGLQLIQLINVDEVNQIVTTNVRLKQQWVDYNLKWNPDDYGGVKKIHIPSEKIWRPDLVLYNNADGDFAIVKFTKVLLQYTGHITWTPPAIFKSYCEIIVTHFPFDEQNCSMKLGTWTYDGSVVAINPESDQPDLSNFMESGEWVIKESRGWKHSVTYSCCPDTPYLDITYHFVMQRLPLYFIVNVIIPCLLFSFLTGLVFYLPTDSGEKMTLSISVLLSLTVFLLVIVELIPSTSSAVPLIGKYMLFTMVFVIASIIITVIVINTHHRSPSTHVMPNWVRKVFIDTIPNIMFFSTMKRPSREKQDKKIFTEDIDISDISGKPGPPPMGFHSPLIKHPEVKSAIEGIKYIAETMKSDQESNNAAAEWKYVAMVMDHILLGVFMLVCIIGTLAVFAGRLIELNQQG
# T17 sequence (P07510 whole entry): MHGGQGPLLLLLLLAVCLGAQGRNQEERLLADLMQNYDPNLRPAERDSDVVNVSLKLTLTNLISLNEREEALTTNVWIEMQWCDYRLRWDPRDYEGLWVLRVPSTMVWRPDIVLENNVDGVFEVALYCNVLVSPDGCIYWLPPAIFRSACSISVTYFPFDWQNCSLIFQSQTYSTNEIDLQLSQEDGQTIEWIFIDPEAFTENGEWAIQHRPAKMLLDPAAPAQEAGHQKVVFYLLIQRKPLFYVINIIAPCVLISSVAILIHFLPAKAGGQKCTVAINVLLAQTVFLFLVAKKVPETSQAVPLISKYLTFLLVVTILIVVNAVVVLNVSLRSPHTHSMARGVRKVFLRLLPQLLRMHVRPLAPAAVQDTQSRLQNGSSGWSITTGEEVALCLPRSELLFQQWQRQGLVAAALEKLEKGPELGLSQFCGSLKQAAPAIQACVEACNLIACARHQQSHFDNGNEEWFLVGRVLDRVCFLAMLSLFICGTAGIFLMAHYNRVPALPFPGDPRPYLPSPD
# T17 sequence (Q07001 whole entry): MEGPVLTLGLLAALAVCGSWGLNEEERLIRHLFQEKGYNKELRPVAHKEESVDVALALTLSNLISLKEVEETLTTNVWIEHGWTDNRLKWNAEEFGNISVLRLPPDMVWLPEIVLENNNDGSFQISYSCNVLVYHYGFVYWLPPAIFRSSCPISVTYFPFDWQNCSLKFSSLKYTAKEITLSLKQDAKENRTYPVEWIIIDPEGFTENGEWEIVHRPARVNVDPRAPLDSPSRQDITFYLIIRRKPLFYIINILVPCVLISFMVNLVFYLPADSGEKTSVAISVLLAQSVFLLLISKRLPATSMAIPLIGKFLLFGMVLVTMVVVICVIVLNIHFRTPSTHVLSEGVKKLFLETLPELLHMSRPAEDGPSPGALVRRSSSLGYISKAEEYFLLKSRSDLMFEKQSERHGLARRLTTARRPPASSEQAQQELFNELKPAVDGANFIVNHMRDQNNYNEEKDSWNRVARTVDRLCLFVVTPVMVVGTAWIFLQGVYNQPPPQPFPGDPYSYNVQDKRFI
# T17 sequence (P11230 whole entry partner): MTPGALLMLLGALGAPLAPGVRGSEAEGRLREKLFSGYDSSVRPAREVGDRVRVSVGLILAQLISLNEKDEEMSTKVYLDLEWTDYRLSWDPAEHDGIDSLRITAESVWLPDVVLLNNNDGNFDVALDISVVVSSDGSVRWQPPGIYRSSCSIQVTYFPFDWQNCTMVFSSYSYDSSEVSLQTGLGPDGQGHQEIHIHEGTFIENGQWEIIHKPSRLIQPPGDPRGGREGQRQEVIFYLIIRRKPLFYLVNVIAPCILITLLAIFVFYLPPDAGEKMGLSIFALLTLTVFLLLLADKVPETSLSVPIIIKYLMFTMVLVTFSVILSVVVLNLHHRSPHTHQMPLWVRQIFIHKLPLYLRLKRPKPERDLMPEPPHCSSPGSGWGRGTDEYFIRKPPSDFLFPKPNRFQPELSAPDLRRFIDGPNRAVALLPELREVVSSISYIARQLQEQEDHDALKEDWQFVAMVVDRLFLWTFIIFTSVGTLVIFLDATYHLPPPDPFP
# HER4 = target: T18, HER4 (Homo sapiens, UniProt Q15303); assay: biochemical; parameters: Purified kinase inhibition, Z'-LYTE (HER, mTOR, DNA-PK) or Adapta (PI3K), ATP at Km apparent
# T18 construct: gene ERBB4; Km ATP
# Description: (§1) IC50 values were determined at a concentration of ATP corresponding to the Km apparent for that kinase.
# mTOR = target: T19, mTOR (Homo sapiens, UniProt P42345); assay: biochemical; parameters: Purified kinase inhibition, Z'-LYTE (HER, mTOR, DNA-PK) or Adapta (PI3K), ATP at Km apparent
# T19 construct: Km ATP
# Description: as §1
# PI3Kβ = target: T20, PI3Kβ (Homo sapiens, UniProt P42338); assay: biochemical; parameters: Purified kinase inhibition, Z'-LYTE (HER, mTOR, DNA-PK) or Adapta (PI3K), ATP at Km apparent
# T20 construct: gene PIK3CB; Km ATP
# T20 sequence (P42338 whole entry): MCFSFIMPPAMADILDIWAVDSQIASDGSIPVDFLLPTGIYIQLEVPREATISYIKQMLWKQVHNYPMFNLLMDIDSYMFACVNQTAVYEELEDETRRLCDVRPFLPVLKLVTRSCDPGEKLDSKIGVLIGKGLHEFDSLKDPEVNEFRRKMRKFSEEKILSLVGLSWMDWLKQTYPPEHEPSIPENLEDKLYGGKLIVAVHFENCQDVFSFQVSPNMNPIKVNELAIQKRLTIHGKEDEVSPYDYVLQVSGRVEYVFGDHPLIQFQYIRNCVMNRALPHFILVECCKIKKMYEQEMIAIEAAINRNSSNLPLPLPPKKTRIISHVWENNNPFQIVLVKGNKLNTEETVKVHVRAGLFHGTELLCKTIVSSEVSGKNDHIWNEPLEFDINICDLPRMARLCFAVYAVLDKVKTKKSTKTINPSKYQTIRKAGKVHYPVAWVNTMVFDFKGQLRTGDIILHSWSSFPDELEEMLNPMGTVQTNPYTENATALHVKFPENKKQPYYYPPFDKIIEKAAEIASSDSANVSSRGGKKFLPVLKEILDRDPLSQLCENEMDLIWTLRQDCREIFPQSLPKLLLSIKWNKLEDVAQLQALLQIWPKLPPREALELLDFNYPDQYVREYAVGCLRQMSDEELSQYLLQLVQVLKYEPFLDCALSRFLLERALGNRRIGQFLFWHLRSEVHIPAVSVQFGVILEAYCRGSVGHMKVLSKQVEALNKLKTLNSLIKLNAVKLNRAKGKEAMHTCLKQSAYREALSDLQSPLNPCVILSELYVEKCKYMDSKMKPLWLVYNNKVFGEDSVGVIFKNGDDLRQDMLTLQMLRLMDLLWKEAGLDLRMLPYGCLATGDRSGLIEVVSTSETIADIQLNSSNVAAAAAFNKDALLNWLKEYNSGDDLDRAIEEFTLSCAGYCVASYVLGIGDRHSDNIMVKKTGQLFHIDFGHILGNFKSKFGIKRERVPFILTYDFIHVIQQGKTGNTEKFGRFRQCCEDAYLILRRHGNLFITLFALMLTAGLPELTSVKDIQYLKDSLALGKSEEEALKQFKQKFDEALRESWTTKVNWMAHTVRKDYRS
# T20 sequence (P27986 whole entry partner): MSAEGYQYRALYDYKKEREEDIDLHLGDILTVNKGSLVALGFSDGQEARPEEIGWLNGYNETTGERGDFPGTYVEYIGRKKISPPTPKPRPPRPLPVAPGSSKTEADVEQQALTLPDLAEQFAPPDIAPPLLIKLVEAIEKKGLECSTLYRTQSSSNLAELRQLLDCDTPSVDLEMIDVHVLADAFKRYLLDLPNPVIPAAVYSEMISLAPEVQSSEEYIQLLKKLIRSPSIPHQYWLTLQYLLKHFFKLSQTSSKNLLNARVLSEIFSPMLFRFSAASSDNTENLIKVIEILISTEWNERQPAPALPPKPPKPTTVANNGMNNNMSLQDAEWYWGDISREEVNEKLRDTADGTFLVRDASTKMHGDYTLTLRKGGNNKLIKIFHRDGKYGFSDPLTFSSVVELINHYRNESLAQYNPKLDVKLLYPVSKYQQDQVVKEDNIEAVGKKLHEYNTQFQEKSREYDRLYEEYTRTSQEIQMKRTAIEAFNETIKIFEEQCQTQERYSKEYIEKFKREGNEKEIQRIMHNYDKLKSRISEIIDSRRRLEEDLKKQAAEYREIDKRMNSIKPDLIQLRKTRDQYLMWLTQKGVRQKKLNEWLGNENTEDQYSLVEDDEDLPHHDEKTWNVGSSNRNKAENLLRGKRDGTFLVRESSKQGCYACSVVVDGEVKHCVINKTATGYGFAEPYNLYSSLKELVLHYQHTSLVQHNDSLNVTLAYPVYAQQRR
# Description: as §1
# HER2 = target: T21, HER2 (Homo sapiens, UniProt P04626); assay: biochemical; parameters: Purified kinase inhibition, Z'-LYTE (HER, mTOR, DNA-PK) or Adapta (PI3K), ATP at Km apparent
# T21 construct: gene ERBB2; Km ATP
# Description: as §1
structure (smiles),measurement,setting,value
"C[C@@H](Nc1ncnc2ccc(-c3cnc(Cl)c(NS(C)(=O)=O)c3)cc12)c1ccccc1 [MTX-531, (R)-N-(2-chloro-5-(4-((1-phenylethyl)amino)quinazolin-6-yl)pyridin-3-yl)methane-sulfonamide]",IC50,PI3Kδ,1.1 nM
same,IC50,PI3Kγ,8.3 nM
same,IC50,PPARγ,2500 nM
same,% inhibition of control enzyme activity,cathepsin G (h),26%
same,% inhibition of control enzyme activity,IRK (h) (InsR),0%
same,% inhibition of control enzyme activity,PKCalpha (h),-3%
same,% inhibition of control enzyme activity,Lck kinase (h),4%
same,% inhibition of control enzyme activity,[1],10%
same,% inhibition of control enzyme activity,ACE (h),-2%
same,% inhibition of control enzyme activity,PDE3A (h),29%
same,% inhibition of control enzyme activity,COX2(h),-3%
same,% inhibition of control enzyme activity,PDE4D2 (h),88%
same,% inhibition of control enzyme activity,COX1(h),-4%
same,inhibition at 10 µM,[2],0%
same,inhibition at 10 µM,[3],39%
same,inhibition at 10 µM,[4],1%
same,inhibition at 10 µM,[5],-7%
same,inhibition at 10 µM,[6],1%
same,inhibition at 10 µM,[7],-5%
same,inhibition at 10 µM,[8],-5%
same,inhibition at 10 µM,[9],9%
same,inhibition at 10 µM,[10],6%
same,IC50,HER4,> 10000 nM
same,IC50,mTOR,105 nM
same,IC50,PI3Kβ,233 nM
same,IC50,HER2,2500 nM

# From paper PMC11357990, “A first-in-class selective inhibitor of EGFR and PI3K offers a single-molecule approach to targeting adaptive resistance” (Nature Cancer, 2024)
